Data from US10294229B2, “Heteroaryl substituted aminopyridine compounds” (BRISTOL-MYERS SQUIBB COMPANY, priority 2015, dated 2019).

Experiments:
IRAK4 = IRAK4 (Homo sapiens (Human), UniProt Q9NWZ3); test: IRAK4 Inhibition Assay; format: biochemical; settings: ATP 500 μM; IRAK4 0.6 nM
How it was run: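 Mobility-shift kinase assay: 0.6 nM IRAK4, 500 μM ATP, 1.5 μM fluorescent peptide, 60 min, room temperature. Percent inhibition was normalised between enzyme-free and DMSO-only wells.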

[1] = Caco-2 Permeability Assay; format: in vitro ADME; settings: human, Caco-2, test compound 3 μM
Procedure: Caco-2 Permeability Assay
Thirteen to 27 days prior to assay, Caco-2 cells were seeded onto collagen-coated polycarbonate filter membranes in 24-well transwell plates at a density of 1.45×10^5 cells/cm^2, approximately 4.8×10^4 cells per well. The cells were grown in a culture medium consisting of DMEM supplemented with 10% fetal bovine serum, 10 mM HEPES, 1% nonessential amino acids, 2 mM L-glutamine, 100 U/mL penicillin-G, and 100 μg/mL streptomycin. The culture medium was replaced every 3 days and the cells were maintained at 37° C. in a 95% relative humidity and 5% CO2 atmosphere. The cells were evaluated for tight junction formation just prior to assay. The test compound was solubilized to 10 mM in 100% DMSO and diluted to 3 μM in assay buffer. Permeability studies were initiated by adding 200 μL assay buffer plus/minus compound to the apical transwell compartment and 600 μL assay buffer plus/minus compound to the basolateral compartment of the 24-well transwell low-binding cluster plate. For apical-to-basolateral (A to B) permeability (absorptive direction), buffer containing compound was placed in the apical compartment (donor wells), while buffer alone was placed in the corresponding basolateral compartments (receiver wells). For basolateral-to-apical (B to A) permeability (secretive direction), buffer containing compound was placed in the basolateral compartment (donor wells), while buffer alone was placed in the corresponding apical compartments (receiver wells). Transwells were then incubated for 2 hours at 37° C. in a 95% relative humidity and 5% CO2 atmosphere with gentle agitation. Following incubation, 100 μL was removed from each apical and basolateral compartment and transferred to 96-well low binding plates that had been previously loaded with 100 μL/well of acetonitrile containing 250 nM propranolol, 250 nM diclofenac, and 500 nM tolbutamide as internal standards. The samples were subsequently analyzed by LC-MS/MS to determine concentrations of compound.

[2] = system: Human whole blood stimulated with a TLR2 agonist (lipoteichoic acid), IL-6 levels; test: IRAK4 Whole Blood Assay; format: cell-based; settings: lipoteichoic acid 10 μg/mL
How it was run: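 IL-6 was quantified by cytometric bead assay in supernatants of human blood (ACD-A) stimulated for 5 h with lipoteichoic acid at 10 μg/mL final. Compound exposure preceded stimulation for 60 min at 37 °C, 5% CO2.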

Chain of IRAK4 (Q9NWZ3 whole entry, species assumed): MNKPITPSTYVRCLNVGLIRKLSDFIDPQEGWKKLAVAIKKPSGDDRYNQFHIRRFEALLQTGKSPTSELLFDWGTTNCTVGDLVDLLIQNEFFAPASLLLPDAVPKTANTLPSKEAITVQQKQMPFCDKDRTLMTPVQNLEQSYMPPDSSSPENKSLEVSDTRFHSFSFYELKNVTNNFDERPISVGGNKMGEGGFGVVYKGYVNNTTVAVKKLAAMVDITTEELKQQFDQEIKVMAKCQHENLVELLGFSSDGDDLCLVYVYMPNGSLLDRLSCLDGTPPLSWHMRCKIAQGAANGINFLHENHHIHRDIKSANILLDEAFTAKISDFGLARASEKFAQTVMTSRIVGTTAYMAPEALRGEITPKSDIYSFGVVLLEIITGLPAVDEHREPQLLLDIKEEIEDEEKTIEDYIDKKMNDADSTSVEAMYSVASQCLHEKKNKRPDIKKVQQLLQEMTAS

IC50 (IRAK4) [nM]	Papp at 2 h, 3 µM [1] [×10⁻⁶ cm/s]	EC50 ([2]; Homo sapiens) [nM]	EC50 [2] [nM]	SMILES
6	2.6	1510	–	COC(=O)N1CC[C@@H](n2cc(-c3cnc(-n4ncc5cc(C#N)cnc54)cc3NC3CC3)nn2)[C@](C)(O)C1 (relative stereo) [Example 208, (trans)-methyl 4-(4-(6-(5-cyano-1H-pyrazolo[3,4-b]pyridin-1-yl)-4-(cyclopropylamino)pyridin-3-yl)-1H-1,2,3-triazol-1-yl)-3-hydroxy-3-methylpiperidine-1-carboxylate]
7	15.9	–	1970	CC(C)Nc1cc(-n2ncc3cc(C#N)cnc32)ncc1-c1cn(CC2CC2(F)F)nn1 (single isomer, unassigned) [Example 31, 1-(5-(1-((2,2-difluorocyclopropyl)methyl)-1H-1,2,3-triazol-4-yl)-4-(isopropylamino)pyridin-2-yl)-1H-pyrazolo[3,4-b]pyridine-5-carbonitrile]
5	7.1	1290	–	CC(C)Nc1cc(-n2ncc3cc(C#N)cnc32)ncc1-c1cn([C@H](C)[C@H](C)O)nn1 (single isomer, unassigned) [Example 88]
4	10.1	–	170	CC(C)Nc1cc(-n2ncc3cc(C#N)cnc32)ncc1-c1cn([C@@H](C)[C@H](C)O)nn1 (single isomer, unassigned) [Example 90]
11	12.4	–	1120	CCC(C)(O)Cn1cc(-c2cnc(-n3ncc4cc(C#N)cnc43)cc2NC(C)C)nn1 (single isomer, unassigned) [Example 92, 1-(5-(1-(2-hydroxy-2-methylbutyl)-1H-1,2,3-triazol-4-yl)-4-(isopropylamino)pyridin-2-yl)-1H-pyrazolo[3,4-b]pyridine-5-carbonitrile]
3	< 1.5	170	–	CC(=O)N1CC[C@@H](n2cc(-c3cnc(-n4ncc5cc(C#N)cnc54)cc3NC(C)C)nn2)[C@H](O)C1 (single isomer, unassigned) [Example 197, 1-(5-(1-((trans)-1-acetyl-3-hydroxypiperidin-4-yl)-1H-1,2,3-triazol-4-yl)-4-(isopropylamino)pyridin-2-yl)-1H-pyrazolo[3,4-b]pyridine-5-carbonitrile]
4	< 1.5	720	–	CC(=O)N1CC[C@@H](n2cc(-c3cnc(-n4ncc5cc(C#N)cnc54)cc3NC(C)C)nn2)[C@H](O)C1 (single isomer, unassigned) [Example 203]
3	2	1900	–	CC(C)Nc1cc(-n2ncc3cc(C#N)cnc32)ncc1-c1cn([C@@H]2CCN(C(=O)C(C)(C)C)C[C@H]2O)nn1 (single isomer, unassigned) [Example 206]
2	4.3	510	–	CC(C)Nc1cc(-n2ncc3cc(C#N)cnc32)ncc1-c1cn([C@@H]2CCN(S(C)(=O)=O)C[C@H]2F)nn1 (single isomer, unassigned) [Example 210, 1-(5-(1-((trans)-3-fluoro-1-(methylsulfonyl)piperidin-4-yl)-1H-1,2,3-triazol-4-yl)-4-(isopropylamino)pyridin-2-yl)-1H-pyrazolo[3,4-b]pyridine-5-carbonitrile]
6	47.4	200	–	CC(F)Cc1cn(-c2cnc(-n3ncc4cc(C#N)cnc43)cc2NC(C)C)nn1 (single isomer, unassigned) [Example 289, 1-(5-(4-(2-fluoropropyl)-1H-1,2,3-triazol-1-yl)-4-(isopropylamino)pyridin-2-yl)-1H-pyrazolo [3,4-b]pyridine-5-carbonitrile]
2	9.7	430	–	CC(C)(O)CCc1cn(-c2cnc(-n3ncc4cc(C#N)cnc43)cc2NC2CCC(F)(F)C2)nn1 (single isomer, unassigned) [Example 347, 1-(4-((3,3-difluorocyclopentyl)amino)-5-(4-(3-hydroxy-3-methylbutyl)-1H-1,2,3-triazol-1-yl)pyridin-2-yl)-1H-pyrazolo[3,4-b]pyridine-5-carbonitrile]
6	36.1	–	110	CC(F)Cn1cc(-c2cnc(-n3ncc4cc(C#N)cnc43)cc2NC(C)C)nn1 (single isomer, unassigned; enantiomer 1) [Example 166, 1-(5-(1-(2-fluoropropyl)-1H-1,2,3-triazol-4-yl)-4-(isopropylamino)pyridin-2-yl)-1H-pyrazolo[3,4-b]pyridine-5-carbonitrile, enantiomer 1]
2	33	560	–	CC(C)Nc1cc(-n2ccc3cncnc32)ncc1-c1cn(CCN2CCOCC2)nn1 [Example 3, N-isopropyl-5-(1-(2-morpholinoethyl)-1H-1,2,3-triazol-4-yl)-2-(7H-pyrrolo[2,3-d]pyrimidin-7-yl)pyridin-4-amine]
3	< 1.5	2530	–	CC(C)Nc1cc(-n2ccc3cncnc32)ncc1-c1cn([C@@H]2CCNC[C@H]2O)nn1 [Example 4, (3R,4R)-4-(4-(4-(isopropylamino)-6-(7H-pyrrolo[2,3-d]pyrimidin-7-yl)pyridin-3-yl)-1H-1,2,3-triazol-1-yl)piperidin-3-ol]
5	1.7	1450	–	CC(C)Nc1cc(-n2ccc3cncnc32)ncc1-c1cn([C@H]2CCNC[C@H]2O)nn1 [Example 6, (3R,4S)-4-(4-(4-(isopropylamino)-6-(7H-pyrrolo[2,3-d]pyrimidin-7-yl)pyridin-3-yl)-1H-1,2,3-triazol-1-yl)piperidin-3-ol]
7	3.9	4120	–	CC(C)Nc1cc(-n2ccc3cncnc32)ncc1-c1cn([C@@H]2CCNC[C@@H]2O)nn1 [Example 7, (3S,4R)-4-(4-(4-(isopropylamino)-6-(7H-pyrrolo[2,3-d]pyrimidin-7-yl)pyridin-3-yl)-1H-1,2,3-triazol-1-yl)piperidin-3-ol]
–	< 1.5	220	–	CC(C)(O)CCc1cn(-c2cnc(-n3ncc4cc(C#N)cnc43)cc2NC2COC2)nn1 [Example 359, 1-(5-(4-(3-hydroxy-3-methylbutyl)-1H-1,2,3-triazol-1-yl)-4-(oxetan-3-ylamino)pyridin-2-yl)-1H-pyrazolo[3,4-b]pyridine-5-carbonitrile]
–	3.6	310	–	CC(C)Nc1cc(-n2ncc3cc(C#N)cnc32)ncc1-n1cc(C2CCN(C(=O)CC(C)(C)O)CC2)nn1 [Example 360, 1-(5-(4-(1-(3-hydroxy-3-methylbutanoyl)piperidin-4-yl)-1H-1,2,3-triazol-1-yl)-4-(isopropylamino)pyridin-2-yl)-1H-pyrazolo[3,4-b]pyridine-5-carbonitrile]
–	3.2	380	–	CC(C)(O)CCc1cn(-c2cnc(-n3ncc4cc(C#N)cnc43)cc2NC2CCC(F)CC2)nn1 (stereo not drawn) [Example 374, 1-(4-(((1r,4r)-4-fluorocyclohexyl)amino)-5-(4-(3-hydroxy-3-methylbutyl)-1H-1,2,3-triazol-1-yl)pyridin-2-yl)-1H-pyrazolo[3,4-b]pyridine-5-carbonitrile]
–	14.8	300	–	CC(=O)NC1CCC(c2cc(-c3cnc(-n4ncc5cc(C#N)cnc54)cc3NC(C)C)on2)CC1 (stereo not drawn) [Example 410, N-((1s,4s)-4-(5-(6-(5-cyano-1H-pyrazolo[3,4-b]pyridin-1-yl)-4-(isopropylamino)pyridin-3-yl)isoxazol-3-yl)cyclohexyl)acetamide]
–	26.9	430	–	COC(=O)NC1CCC(c2cc(-c3cnc(-n4ncc5cc(C#N)cnc54)cc3NC(C)C)on2)CC1 (stereo not drawn) [Example 411, methyl ((1s,4s)-4-(5-(6-(5-cyano-1H-pyrazolo[3,4-b]pyridin-1-yl)-4-(isopropylamino)pyridin-3-yl)isoxazol-3-yl)cyclohexyl)carbamate]
–	27.3	230	–	CC(C)Nc1cc(-n2ncc3cc(C#N)cnc32)ncc1-c1cc(CC(C)(C)O)on1 [Example 438, 1-(5-(5-(2-hydroxy-2-methylpropyl)isoxazol-3-yl)-4-(isopropylamino)pyridin-2-yl)-1H-pyrazolo[3,4-b]pyridine-5-carbonitrile]
